From patent US20240398790A1 (ABBVIE INC., priority 2021, published 2024)

Columns and labels:
[1] = system: AS; settings: literature; cited from earlier work
[2] = system: adult subjects with active ankylosing spondylitis (AS) who had an inadequate response to biologic disease-modifying anti-rheumatic drug therapy (bDMARD-IR); settings: human, in vivo
[3] = system: bDMARD-naïve patients with AS who had an inadequate response to non-steroidal anti-inflammatory drugs (NSAIDs); settings: cited from earlier work
[4] = system: adult subjects with active ankylosing spondylitis (AS) who had an inadequate response to biologic disease-modifying anti-rheumatic drug therapy (bDMARD-IR); test: SELECT AXIS 2 Study 1, Phase 3 placebo-controlled, efficacy at Week 14; type: in vivo, human
[5] = system: adult subjects with active ankylosing spondylitis (AS) who had an inadequate response to biologic disease-modifying anti-rheumatic drug therapy (bDMARD-IR); test: SELECT AXIS 2 Study 1, safety up to Week 14
[6] = AESI up to Week 14, N = 211, listed as Upadacitinib
[7] = AESI up to Week 14, N = 211, listed as upadacitinib freebase
[8] = CTCAE V4, Double-Blind Period (Week 14)
[9] = up to Week 14, N = 211, listed as RINVOQ

For ustekinumab: IL-12/23 inhibitor, the “efficacy achieved in AS” value [1] is listed as “low efficacy”.

In the case of `CC[C@@H]1CN(C(=O)NCC(F)(F)F)C[C@@H]1c1cnc2cnc3[nH]ccc3n12` [upadacitinib, (3S,4R)-3-ethyl-4-(3H-imidazo[1,2-a]pyrrolo[2,3-e]pyrazin-8-yl)-N-(2,2,2-trifluoroethyl)pyrrolidine-1-carboxamide], the “Opportunistic infection excluding tuberculosis and herpes zoster” value [2] is given as 0 (0.0) n (%), the “COVID-19 related AE, %” value ([2]; 14 weeks) is given as “(5.7) %” and the “ASAS40 response at Week 14 (primary endpoint) versus placebo” value ([3]; SELECT-AXIS 1, Week 14) is given as “significantly greater achievement”. The “efficacy once achieved at Week 14, over time” value ([3]; SELECT-AXIS 1, up to and including Week 64) was “sustained or improved over time”, the “AS QoL, UPA-PBO” value [4] was −3.07 and the “ASDAS(CRP) Low Disease Activity, UPA-PBO” value [4] was 34.0. The “ASDAS(CRP), UPA-PBO” value [4] was −1.02, the “BASFI (Function), UPA-PBO” value [4] was −1.17 and the “BASMI (Mobility), UPA-PBO” value [4] was −0.32. For the same molecule, the “MASES (Enthesitis)” value [4] was −2.6, the “MASES (Enthesitis), UPA-PBO” value [4] was −1.5 and the “MRI Spine SPARCC, UPA-PBO” value [4] was −3.90. The “Nocturnal Back Pain, UPA-PBO” value [4] was −1.7, the “Total Back Pain, UPA-PBO” value [4] was −1.53 and the “AS QoL” value ([4]; 15 mg) was −5.10. For the same molecule, the “ASDAS(CRP)” value ([4]; 15 mg) was −1.52, the “BASFI (Function)” value ([4]; 15 mg) was −2.26 and the “BASMI (Mobility)” value ([4]; 15 mg) was −0.48. The “MRI Spine SPARCC” value ([4]; 15 mg) was −3.95, the “Nocturnal Back Pain” value ([4]; 15 mg) was −3.2 and the “Total Back Pain” value ([4]; 15 mg) was −3.00. For the same molecule, the “onset of effect in ASAS40” value ([4]; 15 mg) was 4 Week, the “ASDAS(CRP) Low Disease Activity” value ([4]; 15 mg QD, Week 14, NRI-MI) was 44.1% and the “Adverse event (AE), %” value ([5]; 15 mg QD, up to Week 14, N = 211) was “(40.8) %”. The “Serious infections, proportion of patients” value ([5]; 15 mg, through week 14) was 2.4%, the “herpes zoster, proportion of patients” value ([5]; 15 mg, through week 14) was 0.9% and the Active tuberculosis ([5]; AESI up to Week 14, N = 211) was 0 (0.0) n (%). For the same molecule, the Anemia ([5]; AESI up to Week 14, N = 211) was 3 (1.4) n (%), the Hepatic disorder ([5]; AESI up to Week 14, N = 211) was 6 (2.8) n (%) and the Herpes zoster ([5]; AESI up to Week 14, N = 211) was 2 (0.9) n (%). For the same molecule, the Infection ([5]; AESI up to Week 14, N = 211) was 31 (14.7) n (%), the Lymphoma ([5]; AESI up to Week 14, N = 211) was 0 (0.0) n (%) and the Lymphopenia ([5]; AESI up to Week 14, N = 211) was 1 (0.5) n (%). The Malignancy ([5]; AESI up to Week 14, N = 211) was “No malignancy”, the “Malignancy other than NMSC” value ([5]; AESI up to Week 14, N = 211) was 0 (0.0) n (%) and the Neutropenia ([5]; AESI up to Week 14, N = 211) was 6 (2.8) n (%). For the same molecule, the “Non-melanoma skin cancer (NMSC)” value ([5]; AESI up to Week 14, N = 211) was 0 (0.0) n (%), the Renal dysfunction ([5]; AESI up to Week 14, N = 211) was 0 (0.0) n (%) and the Serious infection ([5]; AESI up to Week 14, N = 211) was 5 (2.4) n (%). The “Adjudicated MACE” value [5, 6] was 0 (0.0) n (%), the Adjudicated gastrointestinal perforation [5, 6] was 0 (0.0) n (%) and the “Adjudicated venous thromboembolic events” value [5, 6] was 0 (0.0) n (%). For the same molecule, the Malignancy [5, 6] was 0 (0.0) n (%), the “Adjudicated MACE” value [5, 7] was “no events” and the Adjudicated gastrointestinal perforation [5, 7] was “no events”. The “Adjudicated venous thromboembolic events” value [5, 7] was “no events”, the Malignancy [5, 7] was “no events” and the “ALT (U/L) Grade 4 (>20.0 xULN)” value [5, 8] was 0/211. The “AST (U/L) Grade 4 (>20.0 xULN)” value [5, 8] was 0/211, the “Creatinine (umol/L) Grade 3 (>3.0-6.0 xULN or >3.0 xBaseline)” value [5, 8] was 0/211 and the “Creatinine (umol/L) Grade 4 (>6.0 xULN)” value [5, 8] was 0/211. The “Hemoglobin (g/L) Grade 3 (<80)” value [5, 8] was 0/211, the “Lymphocytes (10^9/L) Grade 4 (<0.2)” value [5, 8] was 0/211 and the “Neutrophils (10^9/L) Grade 4 (<0.5)” value [5, 8] was 0/211. The safety profile ([5]; Phase 3 AS bDMARD-IR study) was “no new risks were identified”, the “AE with reasonable possibility of being related to study treatment, %” value ([5]; as assessed by investigator, up to Week 14, N = 211) was “(17.1) %” and the “hepatic disorders reported, nature” value ([5]; up to Week 14) was “mild or moderate transaminase elevations”. The “AE leading to death, %” value ([5]; up to Week 14, N = 211) was “(0.0) %”, the “AE leading to withdrawal of study treatment, %” value ([5]; up to Week 14, N = 211) was “(0.0) %” and the “All deaths, %” value ([5]; up to Week 14, N = 211) was “(0.0) %”. The “Serious AE, %” value ([5]; up to Week 14, N = 211) was “(2.8) %”, the “Severe AE, %” value ([5]; up to Week 14, N = 211) was “(3.3) %” and the “AE leading to withdrawal of study treatment, %” value [5, 9] was 0%. For the same molecule, the “Serious AE, %” value [5, 9] was 2.8%.

In the case of tocilizumab: IL-6 inhibitor, the “efficacy achieved in AS” value [1] is listed as “low efficacy”.

B1: sarilumab: IL-6 inhibitor (antibody, chains of the INN, looked up, V domains shown)
VH: EVQLVESGGGLVQPGRSLRLSCAASRFTFDDYAMHWVRQAPGKGLEWVSGISWNSGRIGYADSVKGRFTISRDNAENSLFLQMNGLRAEDTALYYCAKGRDSFDIWGQGTMVTVSS
VL: DIQMTQSPSSVSASVGDRVTITCRASQGISSWLAWYQQKPGKAPKLLIYGASSLESGVPSRFSGSGSGTDFTLTISSLQPEDFASYYCQQANSFPYTFGQGTKLEIK
In the case of B1, the “efficacy achieved in AS” value [1] is given as “low efficacy”.
